Reference: publication PMC4595804, “A strategy to discover decoy chemokine ligands with an anti-inflammatory activity” (Scientific Reports, 2015)
Where two headings read alike, the source gives them in different places.

What was measured:
CCL17 N78V = target: T1, CCL17 N78V (Homo sapiens, UniProt Q92583, N78V); assay: Calcium responses induced by chemokine mutant, neutraligand protocol; assay type: cell-based; settings: 10 μM compound, 5 nM chemokine; remaining response
T1 construct: codes for the mature CCL17 or CCL22 with an N-terminal thioredoxin-hexahistidin (TRX- (His)6) tag; TRX-(His)6 (N, cleaved yes); made in house; host or cells: E. coli BL21 (DE3)
Procedure: (§1) Dye loaded cells were placed in the FlexStation 3 (Molecular Devices). […] For the primary screening, the ligands (50μl of chemokine mixed with DMSO or test compounds) were added to the cells at 40 s, followed by digitonin addition (50μl) at 100 s to the cells. Molecules were screened at a final concentration of 2μg/ml with 5 nM CCL17 or CCL22. […] The calcium response values (height of peak response over baseline) were determined. Hits were selected by comparing the response amplitude at the time of the chemokine addition ± test compound. The Z’ factor[29] was calculated according to the following equation: Z’ = 1-(3SD+ + 3SD−)/|Ave+ − Ave−|, where SD+ and Ave+ are respectively the standard deviation and the mean value of the positive controls (chemokine + DMSO), while SD− and Ave− are respectively the standard deviation and the mean value of the negative controls (HEPES-BSA (0.1%) mixed with DMSO, or cells mixed with C-021). Hit molecules were confirmed by performing concentration-response curves and their half maximal inhibitory concentration (IC50) values were calculated using the Kaleidagraph software.
(§2) and the denaturated chemokines (disulfite bonds reduced by β-mercaptoethanol). The
(§3) chemokine activity was then, tested in the in vitro assays.
(§4) On-column refolding and purification of CCL5, CXCL8, CXCL10, CXCL11, CXCL12, CCL17
(§5) performed in a similar fashion as for CCL17 and CCL22. […]

CCL17 S74A = target: T2, CCL17 S74A (Homo sapiens, UniProt Q92583, S74A); assay: as above; assay type: cell-based; settings: 10 μM compound, 5 nM chemokine; remaining response
T2 construct: codes for the mature CCL17 or CCL22 with an N-terminal thioredoxin-hexahistidin (TRX- (His)6) tag; TRX-(His)6 (N, cleaved yes); made in house; host or cells: E. coli BL21 (DE3)
Procedure: as §1, §2, §3, §4, §5

CCL17 R80W = target: T3, CCL17 R80W (Homo sapiens, UniProt Q92583, R80W); assay: as above; assay type: cell-based; settings: 10 μM compound, 5 nM chemokine; remaining response
T3 construct: codes for the mature CCL17 or CCL22 with an N-terminal thioredoxin-hexahistidin (TRX- (His)6) tag; TRX-(His)6 (N, cleaved yes); made in house; host or cells: E. coli BL21 (DE3)
Procedure: as §1, §2, §3, §4, §5

[1] = Solubility measurements (RP-HPLC); assay type: physicochemical; settings: kinetic from dmso stock, dissolved at 10 µM, room temperature
Procedure: Standard stock solutions of compounds (10mM) were prepared in DMSO, and the molecules were dissolved at a concentration of 10µM in each of the three buffers. The samples were shaken for 1h at room temperature, and centrifuged at 15,000×g . The compounds concentration in the supernatant solutions was determined using RP-HPLC (Gilson) technique. The measurements were done with a UV detector set at 230nm. The measurements were carried out at room temperature using a C18 column ([…], 50×4.6mm, Phenomenex). The aqueous mobile phase contained 0.05% trifluoroacetic acid (solvent A, Sigma-Aldrich). The organic phase was HPLC grade acetonitrile (Sigma-Aldrich CHROMASOLV) (solvent B). The mobile phase flow rate was 2ml/min, and the following program was applied for the elution: 0–0.1min, 5% B; 0.1–2.6min, 5–95% B; 2.6–3.1min, 95% B; 3.1–3.3min, 95–5% B; and 3.3–6min, 5% B. To establish external calibration curves, increasing concentrations of each compound were prepared from standard stock solutions.
The chromatograms were recorded by injecting 20µl of each standard solution, and the calibration curves were plotted using peak areas. […]

mouse CCL22 = target: T4, mouse CCL22 (Mus musculus, UniProt O88430); assay: Calcium responses induced by mouse CCL22, neutraligand protocol, CCR4+Gqi5+ HEK cells; assay type: cell-based; settings: 5 nM mouse CCL22 preincubated 1 h with compound; read-out: IC50, inhibition of mouse CCL22-evoked calcium responses
T4 construct: purchased R&D systems
Procedure: Dye loaded cells were placed in the FlexStation 3 (Molecular Devices). Calcium mobilization was measured at 401 and 475 nm emission fluorescence after excitation at 355 nm. For the primary screening, the ligands (50μl of chemokine mixed with DMSO or test compounds) were added to the cells at 40 s, followed by digitonin addition (50μl) at 100 s to the cells. Molecules were screened at a final concentration of 2μg/ml with 5 nM CCL17 or CCL22. […] Raw fluorescence data (at 401 and 475 nm) were exported and the ratio 401/475 was calculated. The calcium response values (height of peak response over baseline) were determined. Hits were selected by comparing the response amplitude at the time of the chemokine addition ± test compound. The Z’ factor[29] was calculated according to the following equation: Z’ = 1-(3SD+ + 3SD−)/|Ave+ − Ave−|, where SD+ and Ave+ are respectively the standard deviation and the mean value of the positive controls (chemokine + DMSO), while SD− and Ave− are respectively the standard deviation and the mean value of the negative controls (HEPES-BSA (0.1%) mixed with DMSO, or cells mixed with C-021). Hit molecules were confirmed by performing concentration-response curves and their half maximal inhibitory concentration (IC50) values were calculated using the Kaleidagraph software. […]
neutraligand. Human (○) or mouse (●) CCL17 (5nM) was preincubated with increasing […]

[2] = HEPES buffer, aqueous buffer, read-out: solubility in HEPES buffer
[3] = complete cell culture medium, plasma or biological fluid, read-out: solubility in the cell culture medium

T2 sequence (Q92583 24-94 S74A): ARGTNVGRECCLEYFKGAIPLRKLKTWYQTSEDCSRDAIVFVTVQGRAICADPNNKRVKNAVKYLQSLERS
T3 sequence (Q92583 24-94 R80W): as the sequence (Q92583 24-94 S74A) above, with A51S, R57W counted along it
T1 sequence (Q92583 24-94 N78V): as the sequence (Q92583 24-94 S74A) above, with A51S, N55V counted along it
T4 sequence (O88430 25-92): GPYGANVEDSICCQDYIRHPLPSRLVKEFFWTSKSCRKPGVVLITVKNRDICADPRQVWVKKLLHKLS

| SMILES | calcium response induced by CCL17 N78V preincubated with compound (CCL17 N78V) | calcium response induced by CCL17 S74A preincubated with compound (CCL17 S74A) | calcium response induced by CCL17 R80W preincubated with compound (CCL17 R80W) | solubility at 1 h [1, 2] [µM] | solubility at 1 h [1, 3] [µM] | IC50 (mouse CCL22) [µM] |
| --- | --- | --- | --- | --- | --- | --- |
| O=C(OCC(O)CO)c1ccccc1O (centres unmarked) [GPN136, 2,3-dihydroxypropyl 2-hydroxybenzoate] | totally ineffective | totally ineffective | totally ineffective | > 10 | > 10 | 8.1 ± 1.5 |
| CC(C)=CCn1cnc2c1c(=O)n(C)c(=O)n2C [GPN279, 1,3-dimethyl-7-(3-methylbut-2-enyl)-1H-purine-2,6(3H, 7H)-dione] | 75.0 ± 6.0% | no longer acted as a neutralizing molecule | 50.0 ± 11.0% | > 10 | > 10 | – |
